Columns and labels:
calmodulin [1] = target: T1, calmodulin (Homo sapiens, UniProt P0DP23); experiment: native gel autoradiography of calmodulin with radiolabelled melatonin; format: binding; conditions: 15% polyacrylamide gel, 0.5mM CaCl2, no SDS
Method: In order to assess this, 1µl calmodulin (lmg/ml) was incubated with 1µCi 2-[^125I]-melatonin in 9µl TBSC and run on a 15% polyacrylamide gel. The gel was as the running gel of Laemmli (Nature 1970 220 680-685), but with 0.5mM CaCl2 and no SDS in both gel and buffer.

calmodulin [2] = target: T1, calmodulin; conditions: published value; cited from earlier work
calmodulin [3] = target: T1, calmodulin; conditions: cited from earlier work

Row | Compound | radioactive band of complex with calmodulin (calmodulin [1]) | half-life of the calmodulin-melatonin complex (calmodulin [2]) | Ka (calmodulin [3]; affinity for calmodulin) | Kd (calmodulin [3]; binds calmodulin)
1 | COc1ccc2[nH]c([125I])c(CCNC(C)=O)c2c1 [2-[^125I]-melatonin] | no radioactive band was detected |  |  | 
2 | COc1ccc2[nH]cc(CCNC(C)=O)c2c1 [melatonin] | no complex is detected | 2 min |  | 
3 | mastoparan |  |  | 3.3e+09 M⁻¹ | 0.3 nM
